Legend:
sedation = assay: Sedation as side effect of the drug; assay type: in vivo, Sprague-Dawley rats; settings: 100 mg/kg
p38MAPK = p38MAPK phosphorylation in spinal cord of SNI model, Western blot; assay type: in vivo, Sprague-Dawley rats
Description: To be used as a peripheral nerve injury animal model, a sciatic nerve injury (SNI) model was prepared (FIG. 1C). Specifically, 200 to 220 g of male adult Sprague-Dawley rats were anesthetized by intraperitoneal injection of chloral hydrate (500 mg/kg), and then three terminal branches (tibial, common peroneal, and sural nerves) of the right sciatic nerve were approached, and the tibia nerve and the peroneal nerve were tightly ligated with 4-0 silk, and neurectomy was performed at a distal 3 mm position of the ligation site. At this time, a Sham group was a group that exposed only the sciatic nerve without damage.
To analyze the activation of microglia in the spinal cord, which were known to play an important role in the induction/persistence of neuropathic pain, 4 weeks after nerve injury in the SNI animal model, the spinal cord of 4 and 5 lumbar vertebrae was stained with OX-42 to confirm changes in cell shape and intensity. […] The supernatant was transferred to a new microcentrifuge, the protein concentration was measured using a BCA kit, and samples for Western blot were prepared by adding a 1× sample buffer and boiling for 5 minutes. […]

TRPM7 = TRPM7 expression in SNI model, Western blot; assay type: in vivo, Sprague-Dawley rats; settings: 4 weeks after nerve injury
Description: FIG. 5C is a diagram showing results of analyzing the expression of TRMP7 in an SNI animal model by Western blot.
To determine through which signaling pathway YJ102 inhibited a neuroinflammatory response, there was analyzed increased expression and activation of histone demethylase JMJD3 and expression changes of factors associated with JAK/STAT3 pathway, mTOR pathway, and TRPM7-mediated pathway, which were known as important regulatory mechanisms and epigenetic regulators mediating the neuroinflammatory response, in the tissues of the SNI animal model 4 weeks after nerve injury.

[1] = system: collagen in bladder muscle; assay: Collagen content in bladder muscle (Masson's trichrome) in SCI model; assay type: in vivo, Sprague-Dawley rats; settings: 5 mg/kg i.p., day 1 after SCI, vs normal group
caspase-3 = assay: Caspase-3 activation (cleaved caspase-3) in urothelium of SCI model, Western blot; assay type: in vivo, Sprague-Dawley rats; settings: day 3 after SCI
UPIII = assay: Urothelial marker UPIII in SCI model, Western blot; assay type: in vivo, Sprague-Dawley rats; settings: day 3 after SCI
p75 = p75 expression in urothelium of SCI model, RT-PCR and Western blot; assay type: in vivo, Sprague-Dawley rats; settings: after SCI
[2] = system: proNGF in Raw 264.7 macrophage cell line; assay: proNGF expression in LPS-stimulated Raw 264.7 macrophage cell line; assay type: cell-based; settings: LPS 1 μg/ml; YJ102 30 minutes before LPS
Description: (§1) In order to determine whether YJ102 affected the production of proNGF as a ligand of p75, the expression of proNGF in the bladder was confirmed by RT-PCR, Western blot analysis, and immunofluorescence staining. In addition, for further verification, a macrophage cell line Raw 264.7 (Korea Cell Line Bank, Seoul, Korea) was stimulated with 1 μg/ml of LPS, and the effect of YJ102 on the production of proNGF was investigated. At this time, YJ102 was dissolved in DMSO and treated 30 minutes before LPS treatment.

[3] = system: inflammatory factors in Raw 264.7 cell line; assay: Inflammatory factor mRNA in LPS-stimulated Raw 264.7 macrophage cell line, RT-PCR; assay type: cell-based; settings: LPS-treated Raw 264.7, RT-PCR
Description: as §1
To confirm the effect of YJ102 on the expression of inflammatory factors in the bladder after spinal cord injury, the expression of inflammatory cytokines and chemokines, COX-2, iNOS, IL-6, IL-1β, MIP-1α, MIP-1β, MIP-2a, and Gro-α in bladder tissue was confirmed by RT-PCR analysis and Western blot analysis using the primers in Table 2 above. In addition, even in the Raw 264.7 cell line, the expression was verified by RT-PCR analysis.

[4] = system: spleen of psoriasis mouse model; assay: Spleen hypertrophy in IMQ psoriasis model; assay type: in vivo, C57BL/6 mouse; settings: Day 6, vs Vehicle
Description: Psoriasis caused by excessive production of skin cells was a chronic skin disease associated with various factors, including autoimmune diseases, and its symptoms included red and thickened skin and abnormally occurring scaling. […] Specifically, the back region of a C57BL/6 mouse (male, 18 to 20 g, 8 weeks) (Daehan Biolink, Eumseong, Korea) was shaved to remove hair, and then applied with IMQ cream (83 mg/day) (5%) for consecutive 5 days from Day 0 to Day 4 to induce psoriasis-like skin inflammation, and a normal control mouse (Sham) was applied with Vaseline cream (FIG. 16A).
In order to confirm the effect of YJ102 (Chemical Formula 1), a compound of the present disclosure, on psoriasis, YJ102 dissolved in DMSO, methyl pyrrolidinone, and water (1:1.5:1) was administered intraperitoneally (5 mg/kg) for a total of 3 days on Day 2, Day 3, and Day 4, and the Vehicle group was administered in the same amount of a solution of DMSO, methyl pyrrolidinone, and water (1:1.5:1) (FIG. 16A). To assess daily skin changes, PASI scores were used for erythema and scaling. The PASI score was evaluated as a severity scale of 0 to 4, in which 0 meant none, 1 meant mild, 2 meant moderate, 3 meant severe, and 4 meant very severe. (PASI Reference: Yashpal Manchanda, Abhishek De, Sudip Das, and Disha Chakraborty. Disease Assessment in Psoriasis. Indian J Dermatol. 2023 May-June; 68 (3): 278-281.) […]

## CCc1ccc(N(C(=O)COC)c2nc3cc(Cl)ccc3o2)cc1 [YJ102]
sedation
  sedation: sedation was not observed
p38MAPK
  amount of p-p38MAPK: significantly reduced
TRPM7
  expression of TRPM7: inhibited the expression
[1]
  collagen content in the bladder muscle: maintained at a level almost similar to that of the normal group
caspase-3
  caspase-3 activation: inhibited
UPIII
  reduction in level of UPIII (urothelial loss): inhibited
p75; RT-PCR (mRNA)
  p75 expression: significantly reduced
p75; Western blot (protein)
  p75 expression: significantly reduced
[2]
  mRNA expression of proNGF: significantly inhibited
  protein expression of proNGF: significantly inhibited
[3]
  mRNA level of COX-2: significantly reduced
  mRNA level of IL-1β: significantly reduced
  mRNA level of IL-6: significantly reduced
  mRNA level of TNF-α: significantly reduced
  mRNA level of iNOS: significantly reduced
[4]
  size of the spleen: significantly reduced
  weight of the spleen: significantly reduced
